For test [1], the target named is benzodiazepine site of the GABA-A receptor. As to the kind of experiment: Benzodiazepine receptor binding assay (inhibition of 3H-flunitrazepam binding). To be noted: read-out: 3H-Flunitrazepam IC50; ca. 3 nM 3H-flunitrazepam, 10-20 min at 25° C.
For a further test, the system named is motor coordination. As to the kind of experiment: Horizontal screen test for motor coordination. The class given is in vivo, mouse (male CD1). The conditions noted are these: Mus musculus, CD1 mice.
For test [2], the system named is metrazol-induced convulsions. As to the kind of experiment: Suppression of metrazol-induced convulsions (antimetrazol). The test is classed as in vivo, mouse (male CD1). The conditions noted are these: Mus musculus, 0.5 h; PO; clonic convulsions, 30 min observation.
Test [3] relates to metrazol-induced convulsions. Described as above. The class given is in vivo, mouse (male CD1). The conditions noted are these: Mus musculus, 0.5 h; IP; clonic convulsions, 30 min observation. As to the method:
Selected compounds of the invention were tested for their ability to reduce metrazol-induced convulsions in mice (Swinyard, E. A. J. Am. Pharm Assoc. 1949, 38, 201). Male CD1 mice, were fasted at least 16 hours, were divided into equal groups and test compounds or vehicle were administered parenterally. Water was not withheld except during the period of observations. At the time of suspected peak activity, anti-pentylenetetrazol (anti-metrazol) activity was evaluated by the subcutaneous administration of the CD90 dose of metrazol (the dose of metrazol was determined from the dose-response curve producing clonic convulsions in 90% of animals that received the corresponding vehicle for this experiment). Metrazol was dissolved in 0.9% sodium chloride solution, and its dose volume was 10 ml/kg. Animals were housed individually for observation of clonic convulsions, tonic convulsions and death for a period of 30 min. Test compounds that blocked the clonic seizure component of the convulsion in at least 50% of the animals were considered active. The biological assay was considered to be valid if the effects of a known anticonvulsant (positive control) were detected, within the same experiment. Activity was reported as percent reduction of clonic convulsions from the vehicle group. The ED50 values of active compounds were calculated by the method of probits (Finney, D. J. 1971. Probit Analysis. London: Cambridge University Press) and are listed in Tables 1.

The subject of test [4] is anxiety in the adult male rat. As to the kind of experiment: Suppression of anxiety in the adult male rat (Vogel anticonflict test). The conditions noted are these: read-out: Anticonflict MED. The test is classed as in vivo. The procedure: The anxiolytic activity of selected compounds of the invention was assessed by determining their ability to encourage behavior that had been suppressed by punishment (Vogel, J. R. et al. Psychopharmacology 1971, 21, 1). Male rats were deprived of water for 48 hours and were deprived of food for 24 hours prior to testing. After the first 24 hours of water deprivation, they were placed in the conflict chamber for a training period; wherein, they were allowed 200 unpunished licks from a bottle containing tap water. The experiment was run the next day. At the expected time of peak activity, the animals were placed in the chamber and allowed access to tap water. […] Their first lick initiates a 3-min test session. Subsequently,every 20th lick was punished by a 0.2-s shock delivered via the stainless-steel drinking-tube. Vehicle-treated control animals generally were willing to accept a median number of 3 to 8 shocks per test session. […] The Wilcoxon rank-sum test (Mann-WhitneyU-test) was used to test for an increase (p<0.05, 1-tailed) in the median number of shocks in drug-treated groups, compared to a concurrently run vehicle-treated group. The biological assay is considered to be valid if the effects of a known anxiolytic (positive control) are detected, within the same experiment. A compound was considered active if there is a significant difference in the median number of shocks tolerated between the drug-treated group and the control group. The MED was defined as the minimum dose of the drug-treatment as analyzed using the Wilcoxon rank-sum test (SAS; Statistical Analysis System, version 5.16). If the MED value is greater than 10, an active dose of the compound being tested had not been determined.

pIC50: −log10 of the molar value. Where two headings read alike, the source gives them in different places.

In general, pIC50 refers to the IC50 on a negative log10 scale, so that one unit is a factor of ten. By ED50 is commonly meant the dose at which the effect has come halfway, by size or by number of responders.

Regarding `O=C1CCn2c(nc3ncccc32)C1C(=O)Nc1c(F)cc(F)cc1F` (stereo not shown) [CP #8, 6,7-dihydro-8-keto-N-(2,4,6-trifluorophenyl)dipyrido[1,2-a:2',3'-d]imidazole-9-carboxamide], the negative logarithm of the IC50 (pIC50) in test [1] was 6.66. In addition, the ED50 is greater than 30 mg/kg in the test on motor coordination (IP), greater than 30 mg/kg in test [2] and 10 mg/kg in test [3]. Further, the values for the minimal effective dose in test [4] (IP) and in test [4] (PO) were greater than 10 mg/kg and greater than 30 mg/kg, respectively.
Take `O=C1CCN2C(=C1C(=O)Nc1c(F)cccc1F)Nc1cnccc12` [compound 10]: the pIC50 in test [1] is 7.75. Further, the ED50 in test [2] is greater than 30 mg/kg; in test [3], greater than 10 mg/kg. In addition, the minimal effective dose in test [4] (IP) is greater than 10 mg/kg; in test [4] (PO) it was roughly 3 mg/kg.
Turning to `O=C1CCn2c(nc3ncccc32)C1C(=O)Nc1ccncc1` (stereo not shown) [CP #7, 6,7-dihydro-8-keto-N-(4-pyridyl)dipyrido[1,2-a:2',3'-d]imidazole-9-carboxamide], the pIC50 in test [1] is 6.21. The ED50 in the test with motor coordination (PO) is greater than 10 mg/kg; in test [2] it was greater than 10 mg/kg; in test [3], greater than 30 mg/kg. The minimal effective dose was 30 mg/kg in test [4] (IP) and 10 mg/kg in test [4] (PO).
As for `COCCN1C2=C(C(=O)Nc3ccccc3F)C(=O)CCN2c2ncccc21` [compound 11], the pIC50 in test [1] is 6.55. The minimal effective dose in test [4] (PO) was greater than 10 mg/kg.
Regarding `O=C1CCN2C(=C1C(=O)Nc1ccccc1F)Nc1cccnc12` [compound 1], the ED50 is 10 mg/kg with motor coordination (IP), greater than 30 mg/kg in test [2] and 10 mg/kg in test [3]. The minimal effective dose in test [4] (IP) is greater than 10 mg/kg; in test [4] (PO) it was greater than 30 mg/kg.
Regarding `O=C1CCN2C(=C1C(=O)Nc1ccncc1)Nc1cccnc12` [compound 3], the ED50 in the test on motor coordination (IP) was greater than 10 mg/kg; in test [2], greater than 30 mg/kg; in test [3] it was greater than 10 mg/kg. Moreover, the results for the minimal effective dose in test [4] (IP) and in test [4] (PO) were greater than 10 mg/kg and greater than 30 mg/kg, respectively.
With `O=C1CCN2C(=C1C(=O)Nc1c(F)cc(F)cc1F)Nc1cccnc12` [CP #4], the pIC50 in test [1] is 5.71. Besides, the ED50 with motor coordination (IP) was roughly 10 mg/kg; in test [2] it was greater than 30 mg/kg; in test [3], roughly 10 mg/kg. Further, the minimal effective dose is greater than 10 mg/kg in test [4] (IP) and greater than 30 mg/kg in test [4] (PO).
Take `O=C1CCn2c(nc3cccnc32)C1C(=O)Nc1ccccc1` (stereo not shown) [CP #2, 8,9-Dihydro-7-keto-N-phenyldipyrido [1,2-a:3',2'-d] imidazole-6-carboxamide]: the pIC50 in test [1] was less than 5.36. Further, the ED50 in the test on motor coordination (IP) was greater than 10 mg/kg; in test [2], greater than 30 mg/kg; in test [3], greater than 10 mg/kg. The minimal effective dose in test [4] (IP) is greater than 10 mg/kg; in test [4] (PO), greater than 30 mg/kg.
Turning to `O=C1CCn2c(nc3ncccc32)C1C(=O)Nc1ccccc1F` (stereo not shown) [CP #5, 6,7-dihydro-8-keto-N-(2-fluorophenyl)dipyrido[1,2-a:2',3'-d]imidazole-9-carboxamide], the pIC50 in test [1] is 8.46. Moreover, the results for the ED50 (with motor coordination (IP); in test [2]; in test [3]) were 3 mg/kg, 10 mg/kg and 1 mg/kg, respectively. The minimal effective dose is 10 mg/kg in test [4] (IP) and greater than 30 mg/kg in test [4] (PO).
On to `O=C1CCn2c(nc3ncccc32)C1C(=O)Nc1ccccc1` (stereo not shown) [CP #6, 6,7-dihydro-8-keto-N-phenyldipyrido[1,2-a:2',3'-d]imidazole-9-carboxamide], for which the pIC50 in test [1] is 8.08. The ED50 is 3 mg/kg in the test with motor coordination (IP), less than 30 mg/kg in test [2] and 3 mg/kg in test [3]. Further, the results for the minimal effective dose in test [4] (IP) and in test [4] (PO) were greater than 10 mg/kg and 30 mg/kg, respectively.
Take `CN1C2=C(C(=O)Nc3ccccc3F)C(=O)CCN2c2ncccc21` [compound 12]: in test [1], the pIC50 is less than 6.51. The minimal effective dose in test [4] (PO) is greater than 10 mg/kg.
With `O=C1CCn2c(nc3ncccc32)C1C(=O)Nc1c(F)cccc1F` (stereo not shown) [CP #9, 6,7-dihydro-8-keto-N-(2,6-difluorophenyl)dipyrido[1,2-a:2',3'-d]imidazole-9-carboxamide], the pIC50 in test [1] was 7.52. The ED50 was roughly 10 mg/kg with motor coordination (IP), roughly 30 mg/kg in test [2] and roughly 30 mg/kg in test [3]. In addition, the minimal effective dose in test [4] (IP) and in test [4] (PO) was greater than 10 mg/kg throughout.
